Article PMC4578755, “Development of novel cellular histone-binding and chromatin-displacement assays for bromodomain drug discovery” (Epigenetics & Chromatin, 2015)
Blank lines part the entries; values can stand above or below the compound they belong to.

How the values were obtained:
[1] = target: T1, FLAG-tagged BRD4 in HeLa cells (Homo sapiens, UniProt O60885); assay: In situ cell extraction with IF, BRD4 displacement from chromatin; assay type: cell-based; details: HeLa FLAG-BRD4, 96-well, IF
T1 construct: expressed in transfected cells; host or cells: HeLa

[2] = system: histone H3K23Ac mark in HeLa cells; assay: H3K23 acetylation in HeLa cells (Western blot, anti-H3K23Ac immunostaining); assay type: cell-based; details: HDAC inhibitor treatment, 2 µM, 2 h; Western blot
Protocol: Standard IF procedures were used. Briefly, cells were permeabilized (0.5 % Triton X-100 in PBS) for 15 min and incubated with blocking solution (DAKO #X0909) for 30 min. The following primary antibodies were used: goat anti-V5 (Bethyl #A190-119A) 1:200; mouse anti-FLAG (Sigma #F1804) 1:200; rabbit anti-BRD4 (Abcam #ab128874) 1:200; rabbit anti-TRIM24 (Proteintech #14208-1-AP) 1:400; rabbit anti-K3K23Ac (Cell Signaling #8848) 1:200, and mouse anti-histone H3 (Active Motif #39763) 1:4000. Alexa Fluor-conjugated secondary antibodies were from Invitrogen and Hoechst 33342 (Invitrogen, #H3570) was used for nuclei counterstaining (10 µg/ml). For each Alexa fluorochrome, images (4–10 fields per well; 20X magnifications) were acquired using the Operetta High-Content Screening System (PerkinElmer). Image analysis was performed in Harmony software (PerkinElmer) by selecting nuclei and cytoplasm in Hoechst channel. Gating for single cells of flat morphology was done based on nuclei area, roundness and intensity of Hoechst in the nucleus and in the cytoplasm. In every gated cell, the mean signal intensity value for each fluorochrome was calculated separately in nucleus and cytoplasm. The specific nuclear signal was estimated subtracting mean cytoplasmic value from nuclear; and average value was calculated using at least 1000 cells in each well.

[3] = system: FLAG-tagged BRD4 in HeLa cells; assay: In situ cell extraction with IF, BRD4 displacement from chromatin; assay type: cell-based; details: for IF signal for histone H3: HeLa FLAG-BRD4, two-color staining
[4] = target: FLAG-TRIM24-PHD-Bromo-V5 (isolated PHD-bromodomain, residues 810-1050) (human) (UniProt O15164); assay: AlphaScreen or HTRF; AlphaLISA on lysates of HeLa TRIM24-PB cells pretreated with SAHA or DMSO; anti-FLAG or anti-V5 acceptor beads, biotinylated anti-histone H3 antibody, streptavidin donor beads; histone extraction buffer diluted in water
[5] = target: FLAG-TRIM24-PHD-Bromo-V5 (isolated PHD-bromodomain, residues 810-1050) (human) (UniProt O15164); assay: proximity ligation; HeLa TRIM24-PB cells, fixed; goat anti-V5 and mouse anti-histone H3 antibody pair; with and without SAHA (5 µM, 2 h)
[6] = target: biotinylated H3K23Ac peptide (N-terminal residues 1-33 of histone H3); assay: AlphaScreen or HTRF; AlphaScreen; biotinylated H3K23Ac peptide in excess (1 µM), indicated amounts of His-TRIM24 WT or N980A; streptavidin donor beads and Ni-NTA acceptor beads
[7] = target: biotinylated H3K23Ac peptide (N-terminal residues 1-33 of histone H3); assay: AlphaScreen or HTRF; AlphaScreen optimisation matrix of TRIM24 protein and peptide (twofold dilution series); final conditions 5 nM TRIM24 and 15 nM peptide; Buffer B (50 mM Hepes pH 7.4, 100 mM NaCl, 0.1 % BSA, 0.05 % Chaps), room temperature
SMARCA2 = system: SMARCA2; set-up: method as in PMID 26139243; details: cited from earlier work

Chain of biotinylated H3K23Ac peptide (N-terminal residues 1-33 of histone H3) (peptide, as listed by the source): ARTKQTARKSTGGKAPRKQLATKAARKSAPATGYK

Displacement of BRD4 from chromatin [1]: partial displacement
Compound: COc1cc(OC)c2c(=O)[nH]c(-c3cc(C)c(OCCO)c(C)c3)nc2c1 [RVX-208]

Compound: CC(/C=C/C(=O)NO)=C\[C@@H](C)C(=O)c1ccc(N(C)C)cc1 [TSA, Trichostatin A]
Cellular histone H3K23Ac mark [2]: hyperacetylated

Compound: Cc1sc2c(c1C)C(c1ccc(Cl)cc1)=N[C@@H](CC(=O)OC(C)(C)C)c1nnc(C)n1-2 [JQ1]
IF signal for histone H3 [3]: unaffected
Time to decrease in BRD4 bromodomain binding to chromatin ([3]; JQ1 1 µM, HeLa expressing FLAG-tagged bromodomain of BRD4): ≤ 5 min

AlphaLISA S/B (FLAG-acceptor beads, histone extraction buffer diluted 1:10) [4]: 50 fold
AlphaLISA S/B (FLAG-acceptor beads, histone extraction buffer replaced by water) [4]: 20
AlphaLISA S/B (V5-acceptor beads) [4]: 14 fold
AlphaLISA S/B (final 384-well protocol, 26 plates) [4]: 30
fold increase of the PLA signal with SAHA against no SAHA [5]: > 3 fold
Compound: endogenous histone H3 (from UniProt P68431 1-136) (natural protein)

Compound: I-BET 151
IF signal for histone H3 [3]: unaffected

AlphaScreen signal to background (S/B) [6]: > 250
AlphaScreen S/B at 5 nM TRIM24 and 15 nM peptide [7]: 432
Compound: His-tagged TRIM24 PHD-bromodomain, wild type (domain or fragment)

Compound: O=C(/C=C/N1C[C@H]2C[C@@H]1CN2c1ccccn1)c1ccccc1O [PFI-3]
Displacement of endogenous full-length SMARCA2 protein from chromatin (SMARCA2): fails to displace
Displacement of isolated GFP-tagged SMARCA2 bromodomain from chromatin (SMARCA2; engineered cells): can displace
